Source: patent publication US20100158980A1, “DRUG DELIVERY DEVICES FOR DELIVERY OF THERAPEUTIC AGENTS” (priority 2008, published 2010)
≈ marks a conversion by molar mass, not a printed value. Where a name gives a salt, the structure may show the parent alone.

Assay: physchem
Excerpt: The active agent may be any active agent suitable to treat the desired condition. […] Examples include, but are not limited to, acetazolamide, dorzolamide HCl, timolol maleate, and ethacrynic acid sodium salt.

In the case of `O=C(O)CCCCCC[C@@H]1[C@@H](CC[C@@H](O)c2cc3ccccc3s2)[C@H](O)C[C@@H]1O` [AR-102 free acid, 7-((1R,2R,3R,5S)-2-((R)-3-(benzo[b]thiophen-2-yl)-3-hydroxypropyl)-3,5-dihydroxycyclopentyl)heptanoic acid], the solubility class is reported as “moderate solubility”.
For `CC(=O)Nc1nnc(S(N)(=O)=O)s1` [acetazolamide], the solubility (aqueous buffer) was greater than 1000 µg/mL.
With `CCNC(=O)CCC/C=C\C[C@@H]1[C@@H](/C=C/[C@@H](O)CCc2ccccc2)[C@H](O)C[C@@H]1O` [bimatoprost] the solubility class was “low solubility”.
Molecule `Brc1c(NC2=NCCN2)ccc2nccnc12` [brimonidine free base] has a solubility of 360 µg/mL (≈ 1230 µM).
For `C[C@@H]1C[C@H]2[C@@H]3CCC4=CC(=O)C=C[C@]4(C)[C@@]3(F)[C@@H](O)C[C@]2(C)[C@@]1(O)C(=O)COP(=O)(O)O` [dexamethasone sodium phosphate], the solubility class was “high solubility”.
For `C[C@@H]1C[C@H]2[C@@H]3CCC4=CC(=O)C=C[C@]4(C)[C@@]3(F)[C@@H](O)C[C@]2(C)[C@@]1(O)C(=O)CO` [dexamethasone], the solubility class was “low solubility” and the solubility (aqueous buffer) was less than 300 µg/mL.
With `CCN[C@H]1C[C@H](C)S(=O)(=O)c2sc(S(N)(=O)=O)cc21` [dorzolamide HCl] the solubility class was “high solubility” and the solubility (aqueous buffer) was greater than 1000 µg/mL.
With `C=C(CC)C(=O)c1ccc(OCC(=O)O)c(Cl)c1Cl` [ethacrynic acid sodium salt] the solubility class was “high solubility” and the solubility (aqueous buffer) was greater than 1000 µg/mL.
`O=C(O)CCC/C=C\C[C@@H]1[C@@H](CC[C@@H](O)CCc2ccccc2)[C@H](O)C[C@@H]1O` [latanoprost free acid] gave a solubility of 800 µg/mL (≈ 2050 µM).
`CC[C@H](C)C(=O)O[C@H]1C[C@@H](C)C=C2C=C[C@H](C)[C@H](CC[C@@H]3C[C@@H](O)CC(=O)O3)[C@H]21` [lovastatin] showed a solubility (aqueous buffer) of less than 300 µg/mL.
With `CC(C)(C)NC[C@H](O)COc1nsnc1N1CCOCC1` [timolol maleate] the solubility class was “high solubility” and the solubility (aqueous buffer) was greater than 1000 µg/mL.
Work on brimonidine tartrate yielded a solubility (in water at pH 7.7) of 600 µg/mL.
